Reference: US20260042802A1, “POLYPEPTIDE AND USE THEREOF” (priority 2024, published 2026)

Tested on: mouse acetate acid writhing model
Test: Mouse acetate acid writhing model
Format: in vivo, C57BL/6 mice
Conditions: Diclofenac Sodium Group, 30 mg/kg i.p. once daily for 7 days; 8 mice
Excerpt: Seventy SPF-grade healthy C57BL/6 mice, half male and half female, weighing 22-25 g and 8-10 weeks old, are randomly selected. Seventy C57BL/6 mice are weighed and numbered in ascending order of body weight (No. S1-S70). The mice are randomly divided into seven groups in terms of the randomized numerical table method, which are the saline group and the experimental groups, among which the experimental groups include the PPN-01 group, the PPN-04 group, the PPN-06 group, the PPN-11 group, the PPN-12 group, and the PPN-16 group. The dosing concentration (i.e., the concentration of added polypeptides PPN-01, PPN-04, PPN-06, PPN-11, PPN-12, and PPN-16) in each group is 10 mg/kg, with 10 mice in each group.
(§1) Saline Group: 10 healthy mice are routinely reared for one week; the saline is intraperitoneally injected once daily at a concentration of 10 ml/kg for 7 consecutive days; 15 min after the last injection is finished, 0.7% glacial acetic acid (10 ml/kg) is intraperitoneally injected; and each mouse is observed for their writhing behaviors.
Experimental Group: 10 healthy mice are routinely reared for one week; 10 ml/kg of different polypeptides are injected intraperitoneally at a concentration of 0.1 mL/10 g once daily for 7 consecutive days; 15 min after the last injection is finished, 0.7% glacial acetic acid (10 ml/kg) is intraperitoneally injected; and each mouse is observed for their behaviors in writhing.
During the above experiments, the time of first writhing (writhing latency) and the number of writhing in each mouse within 15 min are recorded immediately after the injection of glacial acetic acid solution in each group of mice. When behavioral responses such as inward concavity of the abdomen, extension of the torso and hind limbs, and elevation of the buttocks occur, it is considered to be a complete writhing response, and the results are shown in Table 3 and FIG. 6.
Forty SPF-grade healthy C57BL/6 mice, half male and half female, weighing 22-25 g and 8-10 weeks old, are randomly selected. Forty C57BL/6 mice are weighed and numbered in ascending order of body weight (No. 1 to No. 40). The mice are randomly divided into five groups according to the randomized numerical table method, namely, the saline group, the low-concentration group (2.5 mg/kg), the medium-concentration group (10 mg/kg), the high-concentration group (40 mg/kg), and the diclofenac sodium group (30 mg/kg), with eight mice in each group.
as §1, with “Group: 8” for “Group: 10”, “their behaviors in writhing. […]” for “their writhing behaviors.”

## O=C(O)Cc1ccccc1Nc1c(Cl)cccc1Cl [Diclofenac Sodium, diclofenac sodium, reference compound]
  Inhibiting Rate (writhing): 77.6%
